Reference: patent US6262095A, “Use of tricyclic derivatives of 1,4-dihydro-1,4-dioxo-1H-naphthalene, novel compounds obtained and their application in theraphy” (Laboratoire Innothera, priority 1995, dated 2001)

Key:
[1] = tested on: saphenous vein in rabbits; experiment: Potentiation of the contractile response of the rabbit saphenous vein to electrical stimulation; assay type: cell-based; details: Oryctolagus cuniculus, read-out: increase of contractile response due to electrical stimulation
Experimental: (§1) The contractile effects are measured in vitro under static conditions on vascular capacitance or resistance rings of saphenous, femoral, jugular, mesenteric, and caval veins . . . and on femoral, carotid, basilar, or mesenteric arteries, as well as the thoracic or abdominal aorta . . . in rats (Wistar, 200-250 g), rabbits (New Zealand, 2-2.5 kg), guinea pigs (Dunkin Hartley 250-300 g).
(§2) The rings are placed in a chamber for isolated organs (25 mL for capacitance vessels and 2.5 mL for resistance vessels according to Mulvany), and maintained under isometric conditions using two rigid threads inserted inside the vessel, avoiding causing damage to the endothelium. The vessels are bathed in a modified Krebs solution (in mM: NaCl=118; KCl=4.6; CaCl2 =2.5; MgSO4 =1.2; KH2 PO4 =1.17; NaHCO3 =25; glucose=11), continuously aerated using a gaseous mixture of 95% O2 and 5% Co2, at a pH=7.4, and regulated by thermostat at 37° C. The rings are adjusted to their optimal point as far as the tension-length relationship is concerned. […] The pharmacological studies are carried out after a few standardized preliminary contractile stimulations using a depolarizing solution (hyperpotassic type obtained by replacing NaCl with KCl in equimolar quantities), along with rinsings and periods of equilibration in a pure physiological solution. […]

jugular vein of the rat = experiment: Contraction of rat jugular vein under depolarizing hyperpotassic conditions; assay type: cell-based; details: pH 7.4, read-out: ED50 (contraction)
Experimental: as §1, §2

[2] = tested on: carotid arteries of rabbits; experiment: Contraction of rabbit carotid arteries under depolarizing hyperpotassic conditions; assay type: cell-based; details: Oryctolagus cuniculus, pH 7.4, read-out: ED50 (contraction)
Experimental: as §1, §2

[3] = tested on: dorsal cutaneous chamber in hamsters; experiment: Dorsal cutaneous chamber in hamsters (microcirculation, histamine); assay type: in vivo; details: hamster, 28 mg/kg i.v. bolus, after histamine 1 mg/kg i.v.
Experimental: (§3) In the conscious animal, the arterial pressures are measured according to the classical method derived from Riva Rocci, by the analysis of the acoustical wave transmitted at the arterial level and transformed by a ceramic piezo transducer placed on the tail of the rat, downstream from a sleeve that is automatically inflated by a pressure generator. At the microcirculatory level, the variations in the sections of the veinules and arterioles are studied in vivo in the model of the dorsal cutaneous chamber of conscious hamsters, after a video microscopic recording (microscope Leitz Ergolux equipped with a halogen source for the illumination and its black-and-white CD video camera HPR 610) and computer analysis (software Visicap, Pack ICAP) of the images.
After anesthesia with sodium pentobarbital (60 mg/kg in i.p. administration), the back of the animal is shaved and hair is pulled so as to be able to put an observation chamber (Professor Gebhard, Heidelberg) on the back skin. The two parts of this chamber are sewn after careful removal of a certain level of skin thicknesses, which can impede the observation. A jugular catheter is placed for the i.v. administration of the products, 48 h after the operation.
The effect of the compounds on the hyperpermeability induced by inflammatory agents, such as histamine and bradykinin, is also studied after intravenous injection in a bolus in the model of the dorsal cutaneous chamber of hamsters and according to the method developed by Gimeno et al., described earlier ("A new technique using intravital videomicroscopy for macromolecular permeability measurement," 18th European Congress on Microcirculation, Rome, 1994) using videomicroscopy and image analysis by quantification of the distribution of the intra- and extravascular fluorescence of the fluorescent marker (FITC-Dextran) injected in a bolus through the jugular catheter (63 mg/kg for a volume defined at 1 mL/kg). The microscope is equipped with a fluorescence source and a combination of filters (excitation in the blue range 450-490 nm, and 515-nm stop filter).

[4] = tested on: hyperpermeability induced by histamine in rats; experiment: Hyperpermeability induced by histamine in rats; assay type: in vivo, rat (Wistar); details: rat, oral 0.1 mg/kg, after 2 h, compared to the control group
Experimental: The vascular permeability is studied in vivo by measuring the extravasation of albumin, the quantity of which is determined using an albumin-binding dye (Evans blue).
The hyperpermeability is induced by the intradermal injection of a solution of histamine, bradykinin, or zymosan.
The technique is derived from that described by Beach & Steinetz, J. Pharmacol. Exp. Therap., 1961, Vol. 131: pp. 400-406.
The abdominal walls of the rats (Wistar, 200-230 g) are shorn 1 h before the start of the experiment. The product to be tested is injected by the intraperitoneal route or orally 1-4 h before the sacrifice. The rats are anesthetized with a halothane mixture. […]
At the site of the injection of the inflammatory agent, the skin is cut and placed into glass tubes with a ground[-glass] neck containing 3 mL of fuming hydrochloric acid. […] The optical densities are quantified by absorption spectrophotometry at a wavelength of 620 nm, against a blank [control] containing only dichloromethane. The averages of the optical densities of the different lots of treated or control animals are calculated, then a percentage of variation of the values corresponding to the treated [experimental] animals compared to those of the control animals is calculated.

[5] = tested on: arterial pressure of the conscious rat; experiment: Arterial pressure of the conscious rat; assay type: in vivo; details: oral 0.1-5-50 mg/kg
Experimental: as §3

## O=C1c2ccccc2C(=O)c2sc(-c3ccco3)nc21 [Example n, 4,9-Dihydro-4,9-dioxo-2-(2-furyl)-naphtho[2,3-d]thiazole]
[1]
  activation at 0.3 µM: 200%
Jugular vein of the rat
  EC50: 50 nM
[2]
  EC50: 120 nM
[3]
  arteriolar diameter: not the arteriolar diameter
  histamine-induced vascular hyperpermeability: reduces the vascular hyperpermeability
  veinule diameter: reduces the veinule diameter
[4]
  decrease of hyperpermeability induced by histamine: 26%
[5]
  arterial pressure: does not affect the arterial pressure
